# Test results published in patent US20180057505A1, “BICYCLIC HETEROARYL COMPOUNDS USEFUL AS INHIBITORS OF THE PAR-2 SIGNALING PATHWAY” (VERTEX PHARMACEUTICALS INCORPORATED, priority 2015, published 2018).
# Assays:
# Type in all cases: cell-based
# [1] = test system: UTP-stimulated Ca2+ response in HT-29 cells; experiment: Ca FLIPR TETRA assay, ANTAGONIST mode, activator 0.6 μM UTP; conditions: HT-29 cells, activator 0.6 μM UTP
# Procedure, shortened: (§1)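 Compounds are added to calcium 5-loaded HT-29 cells, read once for intrinsic Ca2+ activation, then incubated 30 min at room temperature. The same wells are then stimulated with a fixed final activator level and the Ca2+ response recorded on FLIPR Tetra.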
# PAR2 (HT-29 cells) [2] = target: T1, PAR2 (HT-29 cells) (Homo sapiens, UniProt P55085); experiment: Ca FLIPR TETRA assay, ANTAGONIST mode, activator 3.1 U/mL trypsin; conditions: HT-29 cells; activator 3.1 U/mL trypsin; Method A: maximal concentration of antagonist 0.1, 1 or 2 μM
# T1 construct: host or cells: HT-29
# T1 sequence (P55085 26-397): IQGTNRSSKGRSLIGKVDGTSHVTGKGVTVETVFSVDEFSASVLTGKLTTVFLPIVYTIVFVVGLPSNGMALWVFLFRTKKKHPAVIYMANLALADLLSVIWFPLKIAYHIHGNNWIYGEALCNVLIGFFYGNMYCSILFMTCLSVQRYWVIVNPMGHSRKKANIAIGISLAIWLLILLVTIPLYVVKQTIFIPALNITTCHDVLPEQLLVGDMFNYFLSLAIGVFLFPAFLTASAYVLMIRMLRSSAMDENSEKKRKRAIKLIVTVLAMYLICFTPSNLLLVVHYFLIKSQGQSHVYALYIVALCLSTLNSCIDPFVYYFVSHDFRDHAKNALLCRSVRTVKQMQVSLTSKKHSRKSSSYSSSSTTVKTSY
# Procedure, shortened: as §1
# [3] = test system: Thrombin-stimulated Ca2+ response in HT-29 cells; experiment: Ca FLIPR TETRA assay, ANTAGONIST mode, activator 1 U/mL Thrombin; conditions: HT-29 cells, activator 1 U/mL Thrombin
# Procedure, shortened: as §1
# PAR2 (HT-29 cells) [4] = target: T1, PAR2 (HT-29 cells); experiment: Ca FLIPR TETRA assay, ANTAGONIST mode, activator 8 μM SLIGKV; conditions: HT-29 cells; activator 8 μM SLIGKV; Method A: maximal concentration of antagonist 0.1, 1 or 2 μM
# Procedure, shortened: as §1
Structure (SMILES),IC50 ([1]; Homo sapiens) [nM],IC50 (PAR2 (HT-29 cells) [2]) [nM],IC50 ([3]; Homo sapiens) [nM],IC50 (PAR2 (HT-29 cells) [4]) [nM],IC50 [1] [nM],IC50 [3] [nM]
Cc1cc(N2CCN(C(=O)c3cc4nc(-c5ccc(Cl)cc5)cc(C(C)(C)C)c4o3)C(C)(C)C2)ncc1C(=O)O [Example I-399],860,0.6,> 1010,0.4,–,–
Cc1cc(N2CCN(C(=O)c3cc4nc(-c5ccc(Cl)c(F)c5)cc(C(C)(C)C)c4o3)C(C)(C)C2)ncc1C(=O)O [Example I-400],810,0.4,1010,0.3,–,–
Cc1cc(C(=O)O)nc(N2CCN(C(=O)c3cc4nc(-c5ccc(Cl)cc5)cc(C(C)(C)C)c4o3)C(C)(C)C2)n1 [Example I-401],710,0.5,960,0.3,–,–
CC(C)(C)c1cc(-c2ccc(Cl)cc2)nc2cc(C(=O)N3CCN(c4cnccn4)CC3(C)C)oc12 [Example I-402],> 2000,15,> 2000,21,–,–
Cc1ccnc(N2CCN(C(=O)c3cc4nc(-c5ccc(Cl)cc5)cc(C(C)(C)C)c4o3)C(C)(C)C2)n1 [Example I-403],> 2000,24,> 2000,23,–,–
CC(C)(C)c1cc(-c2ccc(Cl)cc2)nc2cc(C(=O)N3CCN(c4ncccn4)CC3(C)C)oc12 [Example I-404],> 2000,16,> 2000,25,–,–
CC(C)(C)c1cc(-c2ccc(Cl)c(F)c2)nc2cc(C(=O)N3CCN(c4ccc(C(=O)O)cn4)C(=O)C3(C)C)oc12 [Example I-405],580,1.7,750,1.8,–,–
CC(C)(C)c1cc(-c2ccc(Cl)c(F)c2)nc2cc(C(=O)N3CCN(c4ccn[nH]4)C(=O)C3(C)C)oc12 [Example I-406],> 2000,8.8,> 2000,10,–,–
CC(C)(C)c1cc(-c2ccc(Cl)cc2)nc2cc(C(=O)N3CCN(c4ccn[nH]4)C(=O)C3(C)C)oc12 [Example I-407],> 2000,17,> 2000,17,–,–
Cc1cc(C(=O)O)nc(N2CCN(C(=O)c3cc4nc(C5CCC(C)(C)CC5)cc(C(C)(C)C)c4o3)C(C)(C)C2)n1 [Example I-408],510,1,860,0.7,–,–
Cc1cc(C(=O)O)nc(N2CCN(C(=O)c3cc4nc(-c5ccc(Cl)c(F)c5)cc(C(C)(C)C)c4o3)C(C)(C)C2=O)n1 [Example I-409],–,0.5,–,0.3,560,> 1010
Cc1nc(N2CCN(C(=O)c3cc4nc(-c5ccc(Cl)cc5)cc(C(C)(C)C)c4o3)C(C)(C)C2)ncc1C(=O)O [Example I-410],–,0.9,–,0.6,> 1010,> 1010
Cc1nc(N2CCN(C(=O)c3cc4nc(-c5ccc(Cl)c(F)c5)cc(C(C)(C)C)c4o3)C(C)(C)C2)ccc1C(=O)O [Example I-411],> 2000,0.3,> 2000,0.2,–,–
CC(C)(C)c1cc(-c2ccc(Cl)c(F)c2)nc2cc(C(=O)N3CCN(c4ccncn4)CC3(C)C)oc12 [Example I-412],> 2000,15,> 2000,13.1,–,–
CC1(C)CCC(c2cc(C(C)(C)C)c3oc(C(=O)N4CCN(c5ccc(C(=O)O)cn5)CC4(C)C)cc3n2)CC1 [Example I-413],810,0.8,810,0.6,–,–
CC1(C)CCC(c2cc(C(C)(C)C)c3oc(C(=O)N4CCN(c5ccnc(C(=O)O)n5)CC4(C)C)cc3n2)CC1 [Example I-414],> 2000,16,> 2000,8.5,–,–
CC(C)(C)c1cc(-c2ccc(Cl)cc2)nc2cc(C(=O)N3CCN(c4ccnc(C(=O)O)n4)CC3(C)C)oc12 [Example I-415],> 2000,19,> 2000,19,–,–
CC1(C)CCC(c2cc(C(C)(C)C)c3oc(C(=O)N4CCN(C(=O)CC(C)(C)C(=O)O)CC4(C)C)cc3n2)CC1 [Example I-416],> 1630,0.7,> 1630,0.4,–,–
CC(C)(CC(=O)N1CCN(C(=O)c2cc3nc(-c4ccc(Cl)c(F)c4)cc(C(C)(C)C)c3o2)C(C)(C)C1)C(=O)O [Example I-417],> 1630,0.4,> 1630,0.2,–,–
CC1(C)CCC(c2cc(C(C)(C)C)c3oc(C(=O)N4CCN(C(=O)CCC(=O)O)CC4(C)C)cc3n2)CC1 [Example I-418],> 1250,5.6,> 1250,2.1,–,–
CC(C)(C)c1cc(-c2ccc(Cl)c(F)c2)nc2cc(C(=O)N3CCN(C(=O)CCC(=O)O)CC3(C)C)oc12 [Example I-419],> 1250,3,> 1250,1.1,–,–
CC(C)(C)c1cc(-c2ccc(Cl)cc2)nc2cc(C(=O)N3CCN(C(=O)CCC(=O)O)CC3(C)C)oc12 [Example I-420],> 1250,9.8,> 1250,4.6,–,–
CC(C)(C)c1cc(-c2ccc(F)cc2)nc2cc(C(=O)N3CCN(c4cnc(C(=O)O)cn4)CC3(C)C)oc12 [Example I-421],–,3.4,–,1.5,750,600
CC(C)(C)c1cc(-c2ccc(Cl)c(F)c2)nc2cc(C(=O)N3CCC(C(=O)[C@H]4CC[C@@](C)(C(=O)O)CC4)CC3(C)C)oc12 (stereo partly drawn) [Example I-422],–,0.3,–,0.2,1500,2000
CC(C)(C)c1cc(-c2ccc(Cl)cc2)nc2cc(C(=O)N3CCN(C(=O)[C@H]4CC[C@@](C)(C(=O)O)CC4)CC3(C)C)oc12 [Example I-423],> 2000,0.7,> 2000,0.4,–,–
CC(C)(C)c1cc(-c2ccc(Cl)c(F)c2)nc2cc(C(=O)N3CCC(c4nc(C(=O)O)cs4)CC3(C)C)oc12 (stereo not drawn) [Example I-424],–,0.3,–,0.1,1200,1800
Cc1oc(C2CCN(C(=O)c3cc4nc(C5CCC(C)(C)CC5)cc(C(C)(C)C)c4o3)C(C)(C)C2)nc1C(=O)O (stereo not drawn) [Example I-425],–,0.4,–,0.3,> 2000,> 2000
CC(C)(C)c1cc(-c2ccc(Cl)cc2)nc2cc(C(=O)N3CCC(c4nc(C(=O)O)cs4)CC3(C)C)oc12 (stereo not drawn) [Example I-426],–,0.1,–,0.1,1300,1800
CC1(C)CCC(c2cc(C(C)(C)C)c3oc(C(=O)N4CCC(c5ncc(C(=O)O)cn5)CC4(C)C)cc3n2)CC1 (stereo not drawn) [Example I-427],–,0.8,–,0.5,520,420
CC(C)(C)c1cc(-c2ccc(Cl)c(F)c2)nc2cc(C(=O)N3CCC(c4ncc(C(=O)O)cn4)CC3(C)C)oc12 (stereo not drawn) [Example I-428],–,0.7,–,0.6,1700,1600
